The results in this text go back to ChEMBL document CHEMBL1201862, “PubChem BioAssay data set” (2004).

Assay [1] can be described thus: microbe, parasite or virus in culture. The assay is classed as functional. Conditions: Mycobacterium tuberculosis.
For a further assay, the system named is Vero. Kind of assay: cells. Format: functional. Conditions: Chlorocebus sabaeus.
Assay [2] in a line: viability of PTEN-deleted HCT116 cells – cell-based, HCT116 PTEN knockout, dose response (AID 1047).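 Note: HCT116 colon tumor cells with PTEN knocked out; cells exposed to compound for 60 hours before readout; potency for loss of cell viability measured by luminescence.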 Format: functional.
Assay [3] is described as follows: viability of HCT116 lacking mutant beta-catenin – cell-based, human colon tumor, dose response (AID 1045).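 Note: HCT116 colon tumor cells with beta catenin knocked out; cells exposed to compound for 60 hours.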 The assay is classed as functional.
A short description of assay [4]: viability of uninfected HEp-2 cells – cell-based, HTS, cytotoxicity control for RSV inhibitor project, dose response (AID 2410). The assay is classed as functional. The note with it: human respiratory syncytial virus.
Another assay addresses Cytochrome P450 3A4 (Homo sapiens, UniProt P08684). The note with it: Potency.
Assay [5] deals with T1, DNA repair protein RAD52 homolog (Homo sapiens, UniProt P43351).
T1 sequence (P43351 whole entry): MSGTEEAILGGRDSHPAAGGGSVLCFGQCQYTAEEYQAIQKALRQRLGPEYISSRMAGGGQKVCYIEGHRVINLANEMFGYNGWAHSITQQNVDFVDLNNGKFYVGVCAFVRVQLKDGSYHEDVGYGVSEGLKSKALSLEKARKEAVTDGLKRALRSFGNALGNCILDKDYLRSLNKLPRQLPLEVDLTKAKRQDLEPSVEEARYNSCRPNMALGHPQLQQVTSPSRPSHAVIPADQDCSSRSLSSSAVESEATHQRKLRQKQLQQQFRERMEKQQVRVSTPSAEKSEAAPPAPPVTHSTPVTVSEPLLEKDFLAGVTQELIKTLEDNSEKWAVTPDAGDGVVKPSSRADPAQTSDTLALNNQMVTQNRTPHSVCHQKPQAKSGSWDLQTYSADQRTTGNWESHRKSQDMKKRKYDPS
The assay is classed as functional, biochemical.

Assay [6] deals with T2, Rac GTPase-activating protein 1 (Homo sapiens, UniProt Q9H0H5).
T2 sequence (Q9H0H5 whole entry): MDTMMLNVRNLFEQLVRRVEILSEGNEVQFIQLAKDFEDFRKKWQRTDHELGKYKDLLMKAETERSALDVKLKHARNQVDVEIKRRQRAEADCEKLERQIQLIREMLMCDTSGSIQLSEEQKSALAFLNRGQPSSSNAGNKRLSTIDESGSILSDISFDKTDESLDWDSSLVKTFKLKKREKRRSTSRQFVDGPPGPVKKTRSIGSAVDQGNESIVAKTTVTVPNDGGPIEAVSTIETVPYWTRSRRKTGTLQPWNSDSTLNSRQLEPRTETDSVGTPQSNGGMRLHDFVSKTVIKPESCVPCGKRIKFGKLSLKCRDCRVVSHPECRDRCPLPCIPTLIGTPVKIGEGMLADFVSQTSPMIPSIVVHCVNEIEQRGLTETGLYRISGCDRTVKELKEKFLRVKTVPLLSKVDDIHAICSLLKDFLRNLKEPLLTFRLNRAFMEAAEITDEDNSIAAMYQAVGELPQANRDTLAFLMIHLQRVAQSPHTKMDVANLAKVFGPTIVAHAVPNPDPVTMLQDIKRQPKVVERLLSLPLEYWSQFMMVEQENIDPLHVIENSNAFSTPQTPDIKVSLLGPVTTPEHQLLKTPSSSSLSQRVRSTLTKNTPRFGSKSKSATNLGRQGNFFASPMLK
Put plainly: blockers of MgcRacGAP-driven Rac1 GTP hydrolysis – biochemical, ADP Hunter fluorescence, primary and confirmatory, confirmation (AID 624330). The assay is classed as functional.

Assay [7] concerns the target Eukaryotic translation initiation factor 4E (Mus musculus, UniProt P63073). Kind of assay: blockers of eIF4G binding by eIF4E – biochemical, TR-FRET, dose response (AID 855).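 Note: potency for disrupting eIF4E binding to eIF4GI seen as loss of FRET.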 The assay is classed as functional.
A short description of assay [8]: Trypanosoma cruzi growth suppression in host cells – NIH3T3 host cells, beta-gal luminescence, confirmation (AID 2044).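 Note: intracellular parasites grown in NIH/3T3 mouse fibroblasts as host cells; luminescent beta-galactosidase reporter signal from transgenic T. cruzi replicating inside host cells; inhibitors lower the luminescence signal.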 Format: functional, cell-based.
Assay [9] in a line: NIH3T3 cell viability loss – ATP luminescence, mouse fibroblasts, counter-screen, dose response (AID 2010).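 Note: cells exposed to compound for about 90 hours before reading.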 The assay is classed as functional, cell-based. For orientation: Counterscreens check selectivity or assay interference.
A further assay is described as follows: cells. Format: functional.
A further assay relates to Streptococcus. Kind of assay: GAS UMAA2166 growth inhibition – luminescence, BacTiterGlo, counter-screen for streptokinase expression inhibitor project, dose response (AID 1915).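 Note: potency for reduction of bacterial viability or growth.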 Format: functional, organism-based.
The target in the next assay is Cytochrome P450 2D6 (Homo sapiens, UniProt P10635).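 Note: CYP2D6 member of a cytochrome P450 panel assay.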
Assay [10] deals with Streptococcus sp. 'group A'. Put plainly: Streptococcus pyogenes SK(-)GAS viability under kanamycin – luminescence, BacTiterGlo, confirmation, counter-screen for streptokinase expression inhibitor project, dose response (AID 1900). The assay is classed as functional, organism-based.
A short description of assay [11]: luciferase reporter signal suppression in cells – H4 neuroglioma cells, luminescence, dose response (AID 1990). Format: functional, cell-based. Background: A reporter such as luciferase makes a cellular process visible.
Assay [12] can be described thus: Luminescence Cell-Based Dose Response HTS to Identify Inhibitors of 5'UTR Stem-Loop Driven Prion Protein mRNA Translation in H4 Neuroglioblastoma Cells. [Related pubchem assays: 1827 (Project Summary), 1813 (Primary HTS)]. Format: functional.
The target of the next assay is T3, Streptokinase A (Streptococcus pyogenes serotype M1, UniProt P10520).
T3 sequence (P10520 whole entry): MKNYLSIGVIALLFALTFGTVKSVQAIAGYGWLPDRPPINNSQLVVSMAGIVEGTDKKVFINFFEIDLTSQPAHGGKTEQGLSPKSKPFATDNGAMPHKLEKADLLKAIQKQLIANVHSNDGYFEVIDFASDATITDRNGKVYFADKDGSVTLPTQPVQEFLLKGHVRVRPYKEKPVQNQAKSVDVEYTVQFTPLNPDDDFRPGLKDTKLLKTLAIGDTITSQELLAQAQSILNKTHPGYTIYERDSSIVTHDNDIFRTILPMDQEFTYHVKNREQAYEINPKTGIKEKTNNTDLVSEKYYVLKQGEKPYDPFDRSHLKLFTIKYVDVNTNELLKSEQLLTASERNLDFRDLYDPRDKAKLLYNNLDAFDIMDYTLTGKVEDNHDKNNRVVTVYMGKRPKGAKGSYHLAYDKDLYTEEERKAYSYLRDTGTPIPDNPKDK
Put plainly: viability-normalized secreted streptokinase activity reduction – plasminogen activation absorbance, OD405, dose response (AID 1914).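 Note: secreted streptokinase activity via plasminogen activation per viability signal from cell pellet.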 Format: functional, Streptococcus pyogenes M1 GAS.

Assay [13] in a line: alpha-synuclein stem-loop luciferase translation blockers – H4 neuroglioma cells, luminescence, confirmation (AID 1988). Format: functional, cell-based.
Assay [14] concerns the target T4, Heat shock factor protein 1 (Mus musculus, UniProt P38532).
T4 sequence (P38532 whole entry): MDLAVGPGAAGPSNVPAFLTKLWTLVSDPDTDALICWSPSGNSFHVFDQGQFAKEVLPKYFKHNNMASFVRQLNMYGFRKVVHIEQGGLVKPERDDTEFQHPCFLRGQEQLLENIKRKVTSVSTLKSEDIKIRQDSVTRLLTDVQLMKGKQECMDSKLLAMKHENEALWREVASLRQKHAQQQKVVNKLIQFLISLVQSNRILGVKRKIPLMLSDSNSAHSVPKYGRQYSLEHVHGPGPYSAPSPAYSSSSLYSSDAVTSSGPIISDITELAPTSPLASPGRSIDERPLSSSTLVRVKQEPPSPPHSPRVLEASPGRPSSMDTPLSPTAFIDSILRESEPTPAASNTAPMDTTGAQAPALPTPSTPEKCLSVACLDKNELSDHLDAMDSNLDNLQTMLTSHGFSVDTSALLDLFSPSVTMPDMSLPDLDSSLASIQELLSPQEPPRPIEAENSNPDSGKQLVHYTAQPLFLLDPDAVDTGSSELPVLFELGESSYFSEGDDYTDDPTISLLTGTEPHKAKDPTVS
Kind of assay: enhancement of HSF1-driven luciferase signal – cell-based, NIH3T3, luminescence, dose retest, confirmation (AID 435004).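 Note: stress induced by proteasome inhibitor MG132 added 30 min after compound; luciferase reporter driven by HSF1 response element in NIH3T3 cells; actives raise luminescence as potentiators of the MG132 stress response.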 Format: functional.

The target in assay [15] is T5, Ubiquitin-conjugating enzyme E2 N (Homo sapiens, UniProt P61088).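 Note: Dose-response confirmation in a TR-FRET assay detecting UBC13-driven polyubiquitin chain formation, inhibition measured.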
T5 sequence (P61088 whole entry): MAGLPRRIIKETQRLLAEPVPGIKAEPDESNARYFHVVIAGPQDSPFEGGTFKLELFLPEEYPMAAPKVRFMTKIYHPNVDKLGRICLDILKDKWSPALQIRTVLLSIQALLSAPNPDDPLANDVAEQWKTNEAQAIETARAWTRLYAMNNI
Format: functional.

A short description of assay [16]: Luminescence Cell-Based Dose Retest to Confirm Inhibitors of Cancer Stem Cells. [Related pubchem assays (depositor defined):AID2717, AID2721]. Format: functional. Conditions: Homo sapiens.

Activity calls are given as the source filed them.

Cytochrome P450 3A4, sequence (P08684 whole entry): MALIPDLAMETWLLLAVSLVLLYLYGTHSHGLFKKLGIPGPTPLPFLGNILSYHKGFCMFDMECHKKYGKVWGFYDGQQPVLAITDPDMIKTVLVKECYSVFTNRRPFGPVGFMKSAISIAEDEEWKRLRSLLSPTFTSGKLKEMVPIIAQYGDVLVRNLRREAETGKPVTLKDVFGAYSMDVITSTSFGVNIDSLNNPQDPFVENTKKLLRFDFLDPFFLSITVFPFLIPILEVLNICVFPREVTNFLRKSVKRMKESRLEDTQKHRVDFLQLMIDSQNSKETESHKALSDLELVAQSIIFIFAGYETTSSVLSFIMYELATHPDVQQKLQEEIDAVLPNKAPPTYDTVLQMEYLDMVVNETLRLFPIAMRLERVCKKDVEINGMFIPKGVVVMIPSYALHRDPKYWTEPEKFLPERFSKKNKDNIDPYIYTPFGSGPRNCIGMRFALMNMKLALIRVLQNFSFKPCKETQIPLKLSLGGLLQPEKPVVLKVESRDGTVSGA
Cytochrome P450 2D6, sequence (P10635 whole entry): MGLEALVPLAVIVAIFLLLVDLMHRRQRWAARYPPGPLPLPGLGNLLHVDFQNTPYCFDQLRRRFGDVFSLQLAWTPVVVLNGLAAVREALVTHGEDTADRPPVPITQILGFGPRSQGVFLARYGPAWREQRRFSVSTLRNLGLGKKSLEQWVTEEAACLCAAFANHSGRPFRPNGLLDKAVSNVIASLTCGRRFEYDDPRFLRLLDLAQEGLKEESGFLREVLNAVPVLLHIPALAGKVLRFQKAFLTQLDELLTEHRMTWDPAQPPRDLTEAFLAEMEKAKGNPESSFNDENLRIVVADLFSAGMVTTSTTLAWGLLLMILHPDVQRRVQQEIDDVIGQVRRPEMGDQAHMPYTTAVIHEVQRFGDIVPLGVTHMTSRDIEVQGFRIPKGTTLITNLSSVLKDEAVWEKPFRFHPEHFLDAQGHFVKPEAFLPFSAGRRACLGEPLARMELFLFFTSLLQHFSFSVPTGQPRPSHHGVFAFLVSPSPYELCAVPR
Eukaryotic translation initiation factor 4E, sequence (P63073 whole entry): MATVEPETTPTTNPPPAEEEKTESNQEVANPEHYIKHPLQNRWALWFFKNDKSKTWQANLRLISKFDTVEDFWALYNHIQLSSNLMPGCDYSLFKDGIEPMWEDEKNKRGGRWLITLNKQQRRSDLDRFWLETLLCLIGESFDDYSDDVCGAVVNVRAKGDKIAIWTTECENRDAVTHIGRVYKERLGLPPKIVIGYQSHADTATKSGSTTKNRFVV

Turning to `CC(C)(C)NC(=O)[C@@H]1C[C@@H]2CCCC[C@@H]2CN1C[C@@H](O)[C@H](Cc1ccccc1)NC(=O)[C@H](CC(N)=O)NC(=O)c1ccc2ccccc2n1`, in [1], the CC50 is > 40 µM (active). For the compound `C=CCn1c(SCC(=O)c2[nH]c(C)c(C(=O)OCC)c2C)nc2scc(-c3ccc(OC)cc3)c2c1=O`, the CC50 in the assay with Vero was 6.78 µM (active). The EC50 in assay [2] is 1.49 µM (active); in [3] it was 1.41 µM (active). Take `CN(CCNC(=O)c1cc2c(=O)n(C)c3ccccc3c2n1C)Cc1ccccc1`: the EC50 is 31.5 µM (active) in [2] and 23 µM (active) in assay [3]. Turning to `COc1ccc(OC)c(Nc2nc(-c3sc(C)nc3C)cs2)c1`, the CC50 in [1] is > 40 µM (active); in [4], 20.4 µM (active).

Regarding `CNC(=O)C1(C)C=CC2(CCCCC2)N1C(=O)OC` (stereo unspecified), the AC50 at Cytochrome P450 3A4 was 25.1 µM (inconclusive). For the compound `CC1CCCCN1CC(=O)Nc1ccc(N2CCCCCC2)cc1` (stereo unspecified), the AC50 in assay [5] was 17.4 µM (active). The IC50 in [6] is 101 µM (active). Take `CCOC(=O)c1c(NC(=S)NC(=O)/C=C/c2cccs2)sc(C)c1C`: the 50% effective concentration (EC50) in [2] is 21.2 µM (active); in assay [3], 21.4 µM (active). With `CC1=CC(=O)NP(=O)(Oc2ccc3ccccc3c2)N1` (stereo unspecified), the IC50 is 31.2 µM (active) in [7] and 80.7 µM (active) in [6].

On to `CCC1=C2CC[C@H]3C(=O)NC(=O)[C@H]3[C@H]2[C@@]2(C)C(=O)N(CC3CC3)C(=O)N2C1=O`, for which, at Cytochrome P450 3A4, the AC50 is 31.6 µM (inconclusive). Consider `CCCCCCc1ccc(N2C[C@H](C)[C@@H](CC(=O)NCc3ccccc3)C2=O)cc1`, for which, in [1], the CC50 is > 40 µM (active). `CCN(CC)c1cccc(O)c1`: the AC50 at Cytochrome P450 3A4 is 31.6 µM (inconclusive). As to `COc1cccc(-c2cnc(NCc3cc(Cl)ccc3O)n2C)c1`, the CC50 in [1] is > 40 µM (active). For the compound `Cc1nc2ccc(NC(=O)c3ccc([N+](=O)[O-])cc3[N+](=O)[O-])cc2s1`, the EC50 in [8] is 0.654 µM (active); in assay [9] it was > 60 µM (not active). In addition, the IC50 in “cells” is 1.85 µM (active). As for `CCN(CC)CCN(C(=O)c1ccc(C(=O)c2ccccc2)cc1)c1nc2c(OC)cccc2s1`, in assay [5], the AC50 was 17.2 µM (active).

Consider `COc1cc2c(cc1OC)C(c1ccccc1N)=NCC2`, for which, in [5], the AC50 is 18.6 µM (active). As for `COC(=O)CNC(=O)C1(CC(C)C)C=CCN1C(C)=O` (stereo unspecified), the AC50 on Cytochrome P450 3A4 was 25.1 µM (inconclusive). Turning to `CCOc1ccc(OC(=O)c2ccc3c(=O)n4c(nc3c2)CCC4)cc1`, in “cells”, the IC50 was 0.12 µM (active).

Take `CC1(C)OC2CC3C4CC(F)C5=CC(=O)C=C[C@@]5(C)[C@@]4(F)C(O)C[C@@]3(C)[C@]2(C(=O)CO)O1` (stereo partly specified): the AC50 at Cytochrome P450 3A4 is 39.8 µM (inconclusive). As for `CCCCC1CCC(c2nc(-c3ccccn3)no2)CC1` (stereo unspecified), the EC50 with Streptococcus was 21 µM (active); in assay [10], 16.1 µM (active); in assay [11] it was 9.12 µM (inconclusive); in assay [12], > 60 µM (not active); at Streptokinase A it was > 150 µM (not active); in assay [13], 2.95 µM (active). Moreover, at Cytochrome P450 2D6, the AC50 was 25.1 µM (inconclusive). Regarding `Cc1ccc(N(Cc2ccc(C(=O)Nc3ccccc3C(=O)NCc3ccco3)cc2)S(C)(=O)=O)cc1C`, the EC50 was > 260 µM (inactive) in assay [14], 17.5 µM (active) in [11], > 120 µM (not active) in assay [12] and 22.9 µM (active) in [13]. With `Cc1ccc(S(=O)(=O)Oc2ccc(/N=N/c3ccc(-c4ccc(/N=N/c5c(O)ccc6cc(S(=O)(=O)O)cc(S(=O)(=O)O)c56)c(C)c4)cc3C)cc2)cc1`, at Cytochrome P450 3A4, the AC50 is 25.1 µM (inconclusive).

In the case of `CCOC(=O)N1CCN(C(=O)C(=O)Nc2sc3c(c2C(N)=O)CC(C)(C)OC3)CC1`, the IC50 in [15] was > 20 µM (inactive). Still for that read-out and setting: the result for `COc1ccc2[nH]c(SCc3nc(N)nc(Nc4ccccc4)n3)nc2c1` reads > 20 µM (inactive). Consider `CC(=O)O[C@H]1[C@@H](O)[C@H](O)[C@H](Oc2c(O)c(C)c3c4c2[C@@H](C)CC[C@@H]4[C@@H](C)C[C@H]3C=C(C)C)O[C@H]1C`, for which, in assay [16], the AC50 is 3.19 µM (active). The IC50 in assay [15] was > 20 µM (inactive). For the compound `CNC(C)C(=O)NC(C(=O)N1CCCC1C(=O)Nc1ccc2[nH]ccc2c1)C(C)C` (stereo unspecified), in assay [5], the AC50 was 7.54 µM (active). With `COc1ccccc1/C=C/C(=O)c1cccs1`, the AC50 at Cytochrome P450 3A4 was 25.1 µM (inconclusive). Regarding `COc1ccc(/N=c2\cc(-c3ccc(O)cc3)oc3ccccc23)cc1`, in assay [1], the CC50 is 32.9 µM (active).

Usually EC50 stands for the concentration at which the effect is half-maximal. By AC50 is commonly meant the midpoint of the concentration-response curve, whichever way the signal moves. For orientation: IC50 means the concentration that inhibits the measured activity by half.
